Biological target: T1, Ceramide glucosyltransferase (Homo sapiens, UniProt Q16739)
T1 sequence (Q16739 whole entry): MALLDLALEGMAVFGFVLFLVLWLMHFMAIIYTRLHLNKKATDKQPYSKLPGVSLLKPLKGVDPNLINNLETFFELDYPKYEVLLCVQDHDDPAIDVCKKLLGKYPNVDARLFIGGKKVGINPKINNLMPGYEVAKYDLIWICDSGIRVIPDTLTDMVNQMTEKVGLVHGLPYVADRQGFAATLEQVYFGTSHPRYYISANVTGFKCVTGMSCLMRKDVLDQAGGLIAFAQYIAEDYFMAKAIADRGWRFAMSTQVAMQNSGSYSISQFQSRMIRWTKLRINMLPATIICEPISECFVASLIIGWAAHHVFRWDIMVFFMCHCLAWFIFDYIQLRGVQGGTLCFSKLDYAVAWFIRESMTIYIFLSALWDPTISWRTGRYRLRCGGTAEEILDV
Assay: UDP-Glo Glucosylceramide Synthase Biochemical Assay
Procedure: Using Promega's UDP-Glo Glycosyltransferase assay kit (Promega Corporation, Madison, WI, USA (Promega)), GCS activity was indirectly measured by detecting the amount of UDP produced. An aliquot of GCS enzyme (1.5 μg crude golgi preparation, total protein) and titrated test compound were aliquoted to each well and incubated for 30 minutes at room temperature. […] An equivalent volume of substrate mixture was then added to each well. Following a 20 h incubation at room temperature to allow for GCS turnover of substrate, an equal volume of UDP detection reagent (Promega) was added to each well and incubated for an additional 75 minutes at room temperature to simultaneously convert the accumulated UDP product into ATP and generate light in a luciferase reaction. The generated light was detected using a luminometer.

Row | SMILES | EC50
1 | COCC1(NC(=O)c2cn3cc(Cl)cc(-c4ccccc4OCC(F)(F)F)c3n2)CC1 [US20240018140, Compound 6] | 2.4 nM
2 | CN1CCN(C(=O)c2cn3cc(Cl)cc(-c4ccccc4OCC(F)(F)F)c3n2)CC1(C)C [US20240018140, Compound 7] | 1.2 nM
